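Grown in 96-well plates, cells were treated for 48 hours with each compound at five concentrations. Insufficient inhibition: endpoint recorded as highest concentration tested. GI50: concentration for 50% inhibition of growth.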 Calls of active or inactive are those of the source. Cut-off read from the data, not from the text of the source: active = GI50 up to about 1.1 µM and inactive = higher.
Experiments:
Assay in all cases: inhibition of tumour cell growth, NCI panel, 48 h
[1] = system: BT-549
[2] = system: DMS-114
[3] = system: DMS-273
[4] = system: KM-20L2
[5] = system: LXFL 529
[6] = system: M19-MEL
[7] = system: RXF 631
[8] = system: SNB-78
[9] = system: XF498

Measured: GI50

O=C1C=CC(=O)c2cc(Sc3ccccc3)c(=O)ccc21
inactive: [1] 17.9 µM | [2] 18.8 µM | [3] 18.9 µM | [4] 20.2 µM | [5] 7.43 µM | [6] 16.6 µM | [7] 21.7 µM | [8] 20 µM

Cn1ccnc1Cn1cc(-c2cccc(-c3cn[nH]c3)c2)cn1
inactive: [2] > 100 µM | [3] > 100 µM | [4] > 100 µM | [5] 99.1 µM | [6] > 100 µM | [7] > 100 µM | [8] > 100 µM | [9] > 100 µM

COc1ccc(OC2(c3cc(OC)ccc3OC)OC(=O)c3ccccc32)cc1 (stereo unspecified)
inactive: [2] > 100 µM | [3] > 100 µM | [4] > 100 µM | [5] > 100 µM | [6] > 100 µM | [7] > 100 µM | [8] > 100 µM

O=C(COC(=O)c1cccc2c(=O)c3ccccc3[nH]c12)Nc1ccccc1
inactive: [2] 22.3 µM | [3] 58.1 µM | [4] 79.6 µM | [5] 28.6 µM | [6] 33.6 µM | [7] 28.5 µM | [9] 32.1 µM

Cn1c(=O)nc2n(-c3ccc(Cl)cc3)c(-c3ccccc3)c(-c3ccccc3)nc-2c1=O
inactive: [2] 28.1 µM | [3] 22.6 µM | [4] 30.2 µM | [5] 27.7 µM | [7] 28.3 µM | [8] 49.2 µM | [9] 12.9 µM

O=[N+]([O-])c1ccc2nc(/C(=N/Nc3ccccc3)C(O)c3ccc(Cl)cc3Cl)c(O)nc2c1 (stereo unspecified)
inactive: [2] 8.65 µM | [3] 39 µM | [4] > 100 µM | [6] > 100 µM | [7] 50.4 µM | [8] > 100 µM | [9] > 100 µM

Cc1ccc(NC(=O)CC2C(=O)Nc3ccccc3[S+]2[O-])c(C)c1 (stereo unspecified)
inactive: [2] 7.94 µM | [3] 6.15 µM | [4] 12.3 µM | [5] 16.5 µM | [6] 13.1 µM | [7] 17.2 µM | [8] 16.4 µM | [9] 10.4 µM

COC(=O)C1C=CCON2CCc3c(n(C)c4ccccc34)C12 (stereo unspecified)
inactive: [2] > 100 µM | [3] > 100 µM | [4] > 100 µM | [5] > 100 µM | [6] > 100 µM | [7] > 100 µM | [8] > 100 µM | [9] 42.1 µM

CC(C)=CC(=O)N(C)C1C2CN3CCC(O2)C13 (stereo unspecified)
inactive: [2] > 100 µM | [3] > 100 µM | [4] > 100 µM | [5] > 100 µM | [6] > 100 µM | [8] > 100 µM | [9] > 100 µM

CNc1nnnn1C1OC(CO)C(O)C1O (stereo unspecified)
inactive: [2] > 100 µM | [3] > 100 µM | [4] > 100 µM | [5] > 100 µM | [6] > 100 µM | [7] > 100 µM | [8] > 100 µM | [9] 14.2 µM

COc1ccc(-c2cc(=O)c3c(O)c(O)c(OC)cc3o2)cc1O
inactive: [3] > 100 µM | [4] > 100 µM | [5] > 100 µM | [6] > 100 µM | [7] 92 µM | [9] > 100 µM

CCN(CC)C(=O)CC12CCCCC1=Nc1ccccc12 (stereo unspecified)
inactive: [3] > 100 µM | [4] > 100 µM | [5] > 100 µM | [6] > 100 µM | [7] > 100 µM | [8] > 100 µM | [9] > 100 µM

Cc1ccc(S(=O)(=O)OCC23CCC(CC2)C2CC23)cc1 (stereo unspecified)
inactive: [2] 30.5 µM | [3] 30.1 µM | [4] 56.5 µM | [5] 68.2 µM | [6] 43.2 µM | [7] 73.5 µM

S=C(N/N=C/c1ccco1)NC12CC3CC(CC(C3)C1)C2
inactive: [2] 37.3 µM | [3] 6.05 µM | [4] 42.8 µM | [5] 52.2 µM | [6] > 100 µM | [8] > 100 µM | [9] > 100 µM

From ChEMBL document CHEMBL1201862, “PubChem BioAssay data set” (2004)
